The target in the test is human factor D (Homo sapiens (Human), UniProt P00746). Nature of the test: biochemical. The settings on record: Factor D inhibition data using Method 1; recombinant human factor D 10 nM, substrate Z-Lys-thiobenzyl, fluorescence; read-out: IC50. Format: biochemical. In short, it runs like this:
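E. coli-expressed recombinant human factor D (10 nM) was preincubated with compound for 1 h at room temperature in 0.1 M Hepes pH 7.5, 1 mM MgCl2, 1 M NaCl, 0.05% CHAPS. Fluorescence (ex 485/em 535 nm) was read after adding Z-Lys-thiobenzyl (200 μM) and 2,4-dinitrobenzenesulfonyl-fluoresceine (25 μM); IC50 came from percent inhibition versus concentration.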
human factor D, sequence (P00746 26-253): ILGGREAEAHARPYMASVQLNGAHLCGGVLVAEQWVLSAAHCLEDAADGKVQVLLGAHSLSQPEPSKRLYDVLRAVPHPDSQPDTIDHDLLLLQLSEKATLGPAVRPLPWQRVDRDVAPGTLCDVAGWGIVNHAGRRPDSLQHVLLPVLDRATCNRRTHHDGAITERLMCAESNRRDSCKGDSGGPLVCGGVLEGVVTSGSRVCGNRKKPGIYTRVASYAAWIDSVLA
For orientation: IC50 means the concentration at which inhibition is half-maximal. For `NC(=O)c1nn(CC(=O)N2[C@@H]3C[C@@H]3C[C@H]2C(=O)NCC2CC2(F)F)c2ccccc12` (stereo partly drawn) [Example 67, 1-(2-{(1R,3S,5R)-3-[(2,2-Difluoro-cyclopropylmethyl)-carbamoyl]-2-aza-bicyclo[3.1.0]hex-2-yl}-2-oxo-ethyl)-1H-indazole-3-carboxylic acid amide], the IC50 was 428 nM.

With `CC(=O)c1nn(CC(=O)N2[C@@H]3C[C@@H]3C[C@H]2C(=O)NC[C@@H]2CC2(Cl)Cl)c2ncccc12` [Example 68, (1R,3S,5R)-2-[2-(3-Acetyl-pyrazolo[3,4-b]pyridin-1-yl)-acetyl]-2-aza-bicyclo[3.1.0] hexane-3-carboxylic acid ((S)-2,2-dichloro-cyclopropylmethyl)-amide], the IC50 was determined as 177 nM.

As to `CC(=O)c1nn(CC(=O)N2[C@@H]3C[C@@H]3C[C@H]2C(=O)NC[C@H]2CC2(Cl)Cl)c2ncccc12` [Example 69, (1R,3S,5R)-2-[2-(3-Acetyl-pyrazolo[3,4-b]pyridin-1-yl)-acetyl]-2-aza-bicyclo[3.1.0] hexane-3-carboxylic acid ((R)-2,2-dichloro-cyclopropylmethyl)-amide], the IC50 turned out to be 53 nM.

Take `NC(=O)c1nn(CC(=O)N2[C@@H]3C[C@@H]3C[C@H]2C(=O)NC[C@@H]2CC2(Cl)Cl)c2ccccc12` [Example 70, 1-(2-{(1R,3S,5R)-3-[((S)-2,2-Dichloro-cyclopropylmethyl)-carbamoyl]-2-aza-bicyclo[3.1.0]hex-2-yl}-2-oxo-ethyl)-1H-indazole-3-carboxylic acid amide]: the IC50 is 90 nM.

Regarding `NC(=O)c1nn(CC(=O)N2[C@@H]3C[C@@H]3C[C@H]2C(=O)NC[C@@H]2CC2(Cl)Cl)c2cnccc12` [Example 71, 1-(2-{(1R,3S,5R)-3-[((S)-2,2-Dichloro-cyclopropylmethyl)-carbamoyl]-2-aza-bicyclo[3.1.0]hex-2-yl}-2-oxo-ethyl)-1H-pyrazolo[3,4-c]pyridine-3-carboxylic acid amide], the IC50 is 136 nM.

For `NC(=O)c1nn(CC(=O)N2[C@@H]3C[C@@H]3C[C@H]2C(=O)NC[C@H]2CC2(Cl)Cl)c2cnccc12` [Example 72, 1-(2-{(1R,3S,5R)-3-[((R)-2,2-Dichloro-cyclopropylmethyl)-carbamoyl]-2-aza-bicyclo[3.1.0]hex-2-yl}-2-oxo-ethyl)-1H-pyrazolo[3,4-c]pyridine-3-carboxylic acid amide], the IC50 amounted to 36 nM.

Regarding `CC(=O)c1nn(CC(=O)N2[C@@H]3C[C@@H]3C[C@H]2C(=O)NC[C@H]2CC2(Cl)Cl)c2cnccc12` [Example 92, (1R,3S,5R)-2-[2-(3-Acetyl-pyrazolo[3,4-c]pyridin-1-yl)-acetyl]-2-aza-bicyclo[3.1.0] hexane-3-carboxylic acid ((R)-2,2-dichloro-cyclopropylmethyl)-amide], the IC50 was 24 nM.

Consider `CC(=O)c1nn(CC(=O)N2[C@@H]3C[C@@H]3C[C@H]2C(=O)NC[C@@H]2CC2(Cl)Cl)c2ccc(OCc3ncccn3)cc12` [Example 93, (1R,3S,5R)-2-{2-[3-Acetyl-5-(pyrimidin-2-ylmethoxy)-indazol-1-yl]-acetyl}-2-aza-bicyclo[3.1.0] hexane-3-carboxylic acid ((S)-2,2-dichloro-cyclopropylmethyl)-amide], for which the IC50 came out at 19 nM.

In the case of `NC(=O)c1nn(CC(=O)N2[C@@H]3C[C@@H]3C[C@H]2C(=O)NC[C@H]2CC2(Cl)Cl)c2ccncc12` [Example 95, 1-(2-{(1R,3S,5R)-3-[((R)-2,2-Dichlorocyclopropylmethyl)-carbamoyl]-2-aza-bicyclo[3.1.0]hex-2-yl}-2-oxo-ethyl)-1H-pyrazolo[4,3-c]pyridine-3-carboxylic acid amide], the IC50 worked out at 482 nM.

For `NC(=O)c1nn(CC(=O)N2[C@@H]3C[C@@H]3C[C@H]2C(=O)NC[C@H]2CC2(Cl)Cl)c2cc(F)c(F)cc12` [Example 96, 1-(2-{(1R,3S,5R)-3-[((R)-2,2-Dichloro-cyclopropylmethyl)-carbamoyl]-2-aza-bicyclo[3.1.0]hex-2-yl}-2-oxo-ethyl)-5,6-difluoro-1H-indazole-3-carboxylic acid amide], the IC50 was 307 nM.

Consider `NC(=O)c1nn(CC(=O)N2[C@@H]3C[C@@H]3C[C@H]2C(=O)NC[C@H]2CC2(Cl)Cl)c2ccc(Cl)cc12` [Example 97, 5-Chloro-1-(2-{(1R,3S,5R)-3-[((R)-2,2-dichloro-cyclopropylmethyl)-carbamoyl]-2-aza-bicyclo[3.1.0]hex-2-yl}-2-oxo-ethyl)-1H-indazole-3-carboxylic acid amide], for which the IC50 was 218 nM.

On to `NC(=O)c1nn(CC(=O)N2[C@@H]3C[C@@H]3C[C@H]2C(=O)NC[C@H]2CC2(Cl)Cl)c2ccc(F)cc12` [Example 98, 1-(2-{(1R,3S,5R)-3-[((R)-2,2-Dichloro-cyclopropylmethyl)-carbamoyl]-2-aza-bicyclo[3.1.0]hex-2-yl}-2-oxo-ethyl)-5-fluoro-1H-indazole-3-carboxylic acid amide], for which the IC50 turned out to be 248 nM.

Consider `CC(=O)c1nn(CC(=O)N2[C@@H]3C[C@@H]3C[C@H]2C(=O)NC[C@H]2CC2(Cl)Cl)c2ccc(OCc3ncccc3F)cc12` [Example 99, (1R,3S,5R)-2-{2-[3-Acetyl-5-(3-fluoro-pyridin-2-ylmethoxy)-indazol-1-yl]-acetyl}-2-aza-bicyclo[3.1.0]hexane-3-carboxylic acid ((R)-2,2-dichloro-cyclopropylmethyl)-amide], for which the IC50 was determined as 32 nM.

Regarding `CC(=O)c1nn(CC(=O)N2[C@@H]3C[C@@H]3C[C@H]2C(=O)NC[C@H]2CC2(Cl)Cl)c2ccc(OC(C)c3ncccn3)cc12` (stereo partly drawn) [Example 100, (1R,3S,5R)-2-{2-[3-Acetyl-5-(1-pyrimidin-2-yl-ethoxy)-indazol-1-yl]-acetyl}-2-aza-bicyclo[3.1.0]hexane-3-carboxylic acid ((R)-2,2-dichloro-cyclopropylmethyl)-amide], the IC50 turned out to be 158 nM.

In the case of `CC1(C)[C@@H](CNC(=O)[C@@H]2C[C@H]3C[C@H]3N2C(=O)Cn2nc(C(N)=O)c3ccncc32)C1(Cl)Cl` [Example 101, 1-(2-{(1R,3S,5R)-3-[((S)-2,2-Dichloro-3,3-dimethyl-cyclopropylmethyl)-carbamoyl]-2-aza-bicyclo[3.1.0]hex-2-yl}-2-oxo-ethyl)-1H-pyrazolo[3,4-c]pyridine-3-carboxylic acid amide], the IC50 was found to be 297 nM.

`CC1(C)[C@H](CNC(=O)[C@@H]2C[C@H]3C[C@H]3N2C(=O)Cn2nc(C(N)=O)c3ccncc32)C1(Cl)Cl` [Example 102, 1-(2-{(1R,3S,5R)-3-[((R)-2,2-Dichloro-3,3-dimethyl-cyclopropylmethyl)-carbamoyl]-2-aza-bicyclo[3.1.0]hex-2-yl}-2-oxo-ethyl)-1H-pyrazolo[3,4-c]pyridine-3-carboxylic acid amide]: the IC50 came to 118 nM.

On to `CC(=O)c1nn(CC(=O)N2[C@@H]3C[C@@H]3C[C@H]2C(=O)NC[C@@H]2C(C)(C)C2(Cl)Cl)c2ccc(OCc3ncccn3)cc12` [Example 103, (1R,3S,5R)-2-{2-[3-Acetyl-5-(pyrimidin-2-ylmethoxy)-indazol-1-yl]-acetyl}-2-aza-bicyclo[3.1.0] hexane-3-carboxylic acid ((S)-2,2-dichloro-3,3-dimethyl-cyclopropylmethyl)-amide], for which the IC50 came to 70 nM.

For the origin of these results see US9468661B2, “Pyrrolidine derivatives and their use as complement pathway modulators” (priority 2012, dated 2016).
